Laboratory results reported in US6159940A, “Method for modulating hemopoiesis” (Immunotech Developments Inc., priority 1999, dated 2000).

Tests used:
Assay type in all cases: in vivo
nucleated blood cells = experiment: Nucleated blood cells and lymphocytes in irradiated mice (4 Gy), scheme 1; parameters: Lymphocytes (absolute) in blood: unit not given here; details: for Karyocyte Count in Blood: scheme 1, 10 μg/kg i.m.
Experimental: Irradiated mice (4 Gy) received intramuscular injections of the peptide in the dose of 10 μg/kg according to 2 schemes.
a) Scheme 1: mice received the peptide immediately after irradiation, daily. […] Blood samples were taken four hours after the last peptide injection and on the 7th, 10th, and 16th day after the irradiation. Determined were total count of nucleated blood cells (NC) and lymphocyte percentage of them; nucleated cells and the CFU-S population in femoral bone marrow were counted on the 4th, 8th, and the 14th day.

[1] = Acute toxicity in guinea pigs; details: 20 guinea pigs
Experimental: To establish the safety of use of the peptides, toxicity tests were performed. Toxicity tests where performed in accordance Pharmacological Committee Russian Federation (RF) "guidelines for the pre-clinical study of general toxic activity of new pharmacological compounds". M., 1985.
Acute toxicity was studied in 20 guinea pigs and 6 dogs. […] The drug has a wide therapeutic range.

[2] = system: lymphocyte subpopulations in peripheral blood; experiment: Clinical study: hemogram and immune phenotyping in patients with chronic lymphoid leukosis; details: Patient 0.
Source text: The study was continued in groups of patients with immune cytopenias, multiple myeloma, chronic lymphoid leukosis, lymphocytic lymphomas, lymphosarcomas (55 patients). Special attention was paid to the group of patients with P-cellular lymphoid leukosis. The peculiarity of the leukemic B-lymphocyte clone and its relatively vast representation in the peripheral blood of patients with a pronounced secondary immune deficiency makes B-cellular chronic Lymphoid leukosis a unique model for clinical studies of the effect of an immunomodulator.
Immune phenotyping is the most reliable method to determine the changes of ratios of immunocompetent cells in the peripheral blood and lymphocyte-containing organs. The method allows detection of subpopulations by the presence of cellular differentiating antigen structures on lymphocyte surface. For more trustworthy results, some patients were examined using a flow-type cytoflourimeter and monoclonal antibodies. Taking into account the contingent of the patients, the main surface structures to be examined were the following: CD45++CD14-, CD45+CD14-, CD45+CD14+, CD3+CD19-, CD3-CD19+, CD4+CD8-, CD4-CD8+, CD3+HLA- DR+, CD3+CD16,56+, CD34+, CDS+.
The dynamics of CD4+CD8- and CD4-CD8+ (T-helpers and T-suppressers) and the dynamics of other necessary CD-markers were determined in the course of treatment with H-Ile-Glu-Trp-OH. A special attention was paid to CD45++CD14- and CD45+CD14 as they characterize the proportion between normal and leukemic lymphocytes in chronic lymphoid leukosis and illustrate the influence of the immunoactive peptide on the proportion. These peculiarities connected with the characteristics of the disease allow investigation of the molecular mechanism of its genesis. In the case of an immune cytopenia most important are the quantitative ratios of CD45++CD14- and CD45+CD14- to CD4-CD8+, their reliable values can be obtained with the help of a cytofluorimeter.
One ml daily, intranasally, once or twice in divided doses, for 5 days. The course was repeated after a 3-week interval. To those patients who received a cytostatic mono- or polychemotherapy, H-Ile-Glu-Trp-OH was administered from the first day of the break in the cytostatic treatment.

## H-Ile-Glu-Trp-OH
Nucleated blood cells; scheme 1 (footnote of Table 7)
  Survival: 100%
Nucleated blood cells; 1 Time, Day 4
  Karyocyte Count in Blood: 0.80 ± 0.5 × 10^3 /lmm^3
Nucleated blood cells; 1 Time, Day 7
  Karyocyte Count in Blood: 3.53 ± 0.5 × 10^3 /lmm^3
Nucleated blood cells; 1 Time, Day 10
  Karyocyte Count in Blood: 4.30 ± 0.3 × 10^3 /lmm^3
Nucleated blood cells; 1 Time, Day 16
  Karyocyte Count in Blood: 4.49 ± 0.8 × 10^3 /lmm^3
Nucleated blood cells; 2 Times, Day 4
  Karyocyte Count in Blood: 1.30 ± 0.2 × 10^3 /lmm^3
Nucleated blood cells; 2 Times, Day 7
  Karyocyte Count in Blood: 3.64 ± 0.6 × 10^3 /lmm^3
Nucleated blood cells; 2 Times, Day 10
  Karyocyte Count in Blood: 6.42 ± 0.7 × 10^3 /lmm^3
Nucleated blood cells; 2 Times, Day 16
  Karyocyte Count in Blood: 5.96 ± 1.0 × 10^3 /lmm^3
Nucleated blood cells; 3 Times, Day 4
  Karyocyte Count in Blood: 1.19 ± 0.1 × 10^3 /lmm^3
Nucleated blood cells; 3 Times, Day 7
  Karyocyte Count in Blood: 5.58 ± 0.7 × 10^3 /lmm^3
Nucleated blood cells; 3 Times, Day 10
  Karyocyte Count in Blood: 4.18 ± 0.8 × 10^3 /lmm^3
Nucleated blood cells; 3 Times, Day 16
  Karyocyte Count in Blood: 6.32 ± 0.7 × 10^3 /lmm^3
Nucleated blood cells; 4 Times, Day 4
  Karyocyte Count in Blood: 1.64 ± 0.2 × 10^3 /lmm^3
Nucleated blood cells; 4 Times, Day 7
  Karyocyte Count in Blood: 4.14 ± 0.8 × 10^3 /lmm^3
Nucleated blood cells; 4 Times, Day 10
  Karyocyte Count in Blood: 4.90 ± 0.7 × 10^3 /lmm^3
Nucleated blood cells; 4 Times, Day 16
  Karyocyte Count in Blood: 7.32 ± 1.0 × 10^3 /lmm^3
Nucleated blood cells; scheme 1, 1 Time, Day 4
  Lymphocytes (absolute) in blood: 232
  Lymphocytes, % in blood: 29.0 ± 2.5%
Nucleated blood cells; scheme 1, 1 Time, Day 7
  Lymphocytes (absolute) in blood: 1365
  Lymphocytes, % in blood: 38.8 ± 3.1%
Nucleated blood cells; scheme 1, 1 Time, Day 10
  Lymphocytes (absolute) in blood: 1118
  Lymphocytes, % in blood: 26.3 ± 2.9%
Nucleated blood cells; scheme 1, 1 Time, Day 16
  Lymphocytes (absolute) in blood: 2412
  Lymphocytes, % in blood: 53.6 ± 6.0%
Nucleated blood cells; scheme 1, 2 Times, Day 4
  Lymphocytes (absolute) in blood: 468
  Lymphocytes, % in blood: 36.0 ± 1.7%
Nucleated blood cells; scheme 1, 2 Times, Day 7
  Lymphocytes (absolute) in blood: 1260
  Lymphocytes, % in blood: 34.8 ± 2.1%
Nucleated blood cells; scheme 1, 2 Times, Day 10
  Lymphocytes (absolute) in blood: 1664
  Lymphocytes, % in blood: 25.5 ± 2.7%
Nucleated blood cells; scheme 1, 2 Times, Day 16
  Lymphocytes (absolute) in blood: 2682
  Lymphocytes, % in blood: 44.8 ± 6.2%
Nucleated blood cells; scheme 1, 3 Times, Day 4
  Lymphocytes (absolute) in blood: 432
  Lymphocytes, % in blood: 36.0 ± 1.3%
Nucleated blood cells; scheme 1, 3 Times, Day 7
  Lymphocytes (absolute) in blood: 1512
  Lymphocytes, % in blood: 27.1 ± 1.9%
Nucleated blood cells; scheme 1, 3 Times, Day 10
  Lymphocytes (absolute) in blood: 1233
  Lymphocytes, % in blood: 29.5 ± 3.6%
Nucleated blood cells; scheme 1, 3 Times, Day 16
  Lymphocytes (absolute) in blood: 2853
  Lymphocytes, % in blood: 44.8 ± 4.80%
Nucleated blood cells; scheme 1, 4 Times, Day 4
  Lymphocytes (absolute) in blood: 639
  Lymphocytes, % in blood: 39.0 ± 2.9%
Nucleated blood cells; scheme 1, 4 Times, Day 7
  Lymphocytes (absolute) in blood: 1025
  Lymphocytes, % in blood: 25.6 ± 3.7%
Nucleated blood cells; scheme 1, 4 Times, Day 10
  Lymphocytes (absolute) in blood: 1475
  Lymphocytes, % in blood: 30.7 ± 6.5%
Nucleated blood cells; scheme 1, 4 Times, Day 16
  Lymphocytes (absolute) in blood: 2847
  Lymphocytes, % in blood: 38.5 ± 1.40%
[1]
  acute toxicity: No toxic effects were observed
[2]
  % of Cells after H-Ile-Glu-Trp-OH Treatment, CD45++CD14- lymphocytes: 28%
  % of Cells after H-Ile-Glu-Trp-OH Treatment, CD45+CD14+ monocytes: 3.6%
  % of Cells after H-Ile-Glu-Trp-OH Treatment, CD45+CD14- granulocytes: 63.8%
